Laboratory results as given in patent US11464770B2, “Anticancer pharmaceutical composition” (NATIONAL CANCER CENTER, priority 2016, dated 2022).
Where two headings read alike, the source gives them in different places.

Tests used:
[1] = tested on: cervical carcinoma cell lines; experiment: Cell based assay, cell viability (CellTiter-Glo), cervical carcinoma cell lines; conditions: Homo sapiens; HeLa cells
[2] = tested on: blood cancer cell lines (e.g. HL-60, Jurkat, Raji, Ramos, Daudi, MOLT-4); experiment: Cell based assay, cell viability (CellTiter-Glo), blood cancer cell lines; conditions: Homo sapiens
Method in brief: (§1)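 Viability measured by ATP luminescence following 72 h treatment over a 0–2 μM final concentration range.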

[3] = tested on: pancreatic cancer cell lines (e.g. MIA PaCa-2); experiment: Cell based assay, cell viability (CellTiter-Glo), pancreatic cancer cell lines; conditions: Homo sapiens
Method in brief: as §1

[4] = MV4-11, blood cancer cell line MV-4-11, 72 hours, read-out: IC50, MV-4-11
[5] = blood cancer cell line Daudi, 72 hours, read-out: IC50, Daudi
[6] = blood cancer cell line HL-60, 72 hours, read-out: IC50, HL-60
[7] = blood cancer cell line Jurkat, 72 hours, read-out: IC50, Jurkat
[8] = blood cancer cell line MOLT-4, 72 hours, read-out: IC50, MOLT-4
[9] = blood cancer cell line Raji, 72 hours, read-out: IC50, Raji
[10] = blood cancer cell line Ramos (RA 1), 72 hours, read-out: IC50, Ramos (RA 1)
[11] = blood cancer cell line U-937, 72 hours, read-out: IC50, U-937
[12] = pancreatic cancer cell line AsPC-1, 72 hours, read-out: IC50, AsPC-1
[13] = pancreatic cancer cell line BxPC-3, 72 hours, read-out: IC50, BxPC-3
[14] = pancreatic cancer cell line CFPAC-1, 72 hours, read-out: IC50, CFPAC-1
[15] = pancreatic cancer cell line Capan-1, 72 hours, read-out: IC50, Capan-1
[16] = pancreatic cancer cell line Capan-2, 72 hours, read-out: IC50, Capan-2
[17] = pancreatic cancer cell line MIA PaCa-2, 72 hours, read-out: IC50, MIA PaCa-2
[18] = pancreatic cancer cell line PANC-1, 72 hours, read-out: IC50, PANC-1

SMILES	IC50 [1] [nM]	IC50 [2, 4] [nM]	IC50 [2, 5] [nM]	IC50 [2, 6] [nM]	IC50 [2, 7] [nM]	IC50 [2, 8] [nM]	IC50 [2, 9] [nM]	IC50 [2, 10] [nM]	IC50 [2, 11] [nM]	IC50 [3, 12] [nM]	IC50 [3, 13] [nM]	IC50 [3, 14] [nM]	IC50 [3, 15] [nM]	IC50 [3, 16] [nM]	IC50 [3, 17] [nM]	IC50 [3, 18] [nM]
COC(=O)c1ccc(C[S+]([O-])c2[nH]c3c(Cl)ccc(Cl)c3c(=O)c2C(C)=O)cc1 (stereo not shown) [Compound 91, methyl 4-(((3-acetyl-5,8-dichloro-4-oxo-1,4-dihydroquinolin-2-yl)sulfinyl)methyl)benzoate]	> 10000	> 2000	> 2000	> 2000	1730	> 2000	> 2000	> 2000	> 2000	> 2000	> 2000	> 10000	> 2000	> 2000	1420	> 2000
COc1cccc2[nH]c(SCc3ccc(S(F)(F)(F)(F)F)cc3)c(C(C)=O)c(=O)c12 [Compound 92, 3-acetyl-5-methoxy-2-((4-(pentafluoro--sulfanyl)benzyl)thio)quinolin-4(1H)-one]	> 10000	> 2000	> 2000	> 2000	> 2000	> 2000	> 2000	> 2000	> 2000	> 2000	> 2000	> 10000	> 2000	> 2000	> 2000	> 2000
COc1cccc2[nH]c([S+]([O-])Cc3ccc(S(F)(F)(F)(F)F)cc3)c(C(C)=O)c(=O)c12 (stereo not shown) [Compound 93, 3-acetyl-5-methoxy-2-((4-(pentafluoro--sulfanyl)benzyl)sulfinyl)quinolin-4(1H)-one]	> 10000	> 2000	> 2000	> 2000	> 2000	> 2000	> 2000	> 2000	> 2000	> 2000	> 2000	> 10000	> 2000	> 2000	> 2000	> 2000
COc1cccc2[nH]c([S+]([O-])Cc3cc(C)on3)c(C(C)=O)c(=O)c12 (stereo not shown) [Compound 94, 3-acetyl-5-methoxy-2-(((5-methylisoxazol-3-yl)methyl)sulfinyl)quinolin-4(1H)-one]	> 10000	1380	> 2000	> 2000	> 2000	> 2000	> 2000	> 2000	> 2000	> 2000	> 2000	> 10000	> 2000	> 2000	1650	> 2000
Cc1cc(C[S+]([O-])c2[nH]c3c(Br)ccc(Cl)c3c(=O)c2C(=O)C2CC2)no1 (stereo not shown) [Compound 96, 8-bromo-5-chloro-3-(cyclopropanecarbonyl)-2-(((5-methylisoxazol-3-yl)methyl)sulfinyl)quinolin-4(1H)-one]	> 2000	1160	1370	1650	590	> 2000	1660	1060	> 2000	> 2000	> 2000	> 10000	> 2000	> 2000	1140	> 2000
Cc1cc(C[S+]([O-])c2[nH]c3c(Cl)ccc(Cl)c3c(=O)c2C(=O)C2CC2)no1 (stereo not shown) [Compound 97, 5,8-dichloro-3-(cyclopropanecarbonyl)-2-(((5-methylisoxazol-3-yl)methyl)sulfinyl)quinolin-4(1H)-one]	> 2000	800	1040	> 2000	510	770	1290	700	1350	1740	> 2000	> 10000	1520	> 2000	860	> 2000
CC(=O)c1c([S+]([O-])Cc2ccc(C#N)s2)[nH]c2c(Br)ccc(Cl)c2c1=O (stereo not shown) [Compound 98, 5-(((3-acetyl-8-bromo-5-chloro-4-oxo-1,4-dihydroquinolin-2-yl)sulfinyl)methyl)thiophene-2-carbonitrile]	> 2000	1240	1470	> 2000	730	> 2000	> 2000	1230	> 2000	> 2000	> 2000	> 10000	> 2000	> 2000	1270	> 2000
CC(=O)c1c([S+]([O-])Cc2ccc(-n3cccn3)nc2)[nH]c2c(Br)ccc(Cl)c2c1=O (stereo not shown) [Compound 99, 2-(((6-(1H-pyrazol-1-yl)pyridin-3-yl)methyl)sulfinyl)-3-acetyl-8-bromo-5-chloroquinolin-4(1H)-one]	> 2000	950	1000	> 2000	440	730	1250	840	1360	1490	> 2000	> 10000	1990	> 2000	720	> 2000
CC(=O)c1c([S+]([O-])Cc2ccc(N)nc2)[nH]c2c(Br)ccc(Cl)c2c1=O (stereo not shown) [Compound 100, 3-acetyl-2-(((6-aminopyridin-3-yl)methyl)sulfinyl)-8-bromo-5-chloroquinolin-4(1H)-one]	> 2000	> 2000	> 2000	> 2000	> 2000	> 2000	> 2000	> 2000	> 2000	> 2000	> 2000	> 10000	> 2000	> 2000	> 2000	> 2000
O=C(c1c([S+]([O-])Cc2ccc(SC(F)(F)F)cc2)[nH]c2c(Br)ccc(Cl)c2c1=O)C1CC1 (stereo not shown) [Compound 101, 8-bromo-5-chloro-3-(cyclopropanecarbonyl)-2-((4-((trifluoromethyl)thio)benzyl)sulfinyl)quinolin-4(1H)-one]	> 2000	> 2000	1040	> 2000	1010	1160	1790	1480	> 2000	> 2000	> 2000	> 10000	> 2000	> 2000	1830	> 2000
CC(=O)c1c([S+]([O-])Cc2ccc(C(F)(F)F)nc2C)[nH]c2c(Br)ccc(Cl)c2c1=O (stereo not shown) [Compound 102, 3-acetyl-8-bromo-5-chloro-2-(((2-methyl-6-(trifluoromethyl)pyridin-3-yl)methyl)sulfinyl)quinolin-4(1H)-one]	> 2000	1010	1020	1870	> 2000	940	1400	980	> 2000	1540	> 2000	> 10000	1660	> 2000	690	> 2000

The remaining lines, values ahead:

IC50 [1] [nM]	IC50 [2, 4] [nM]	IC50 [2, 5] [nM]	IC50 [2, 6] [nM]	IC50 [2, 7] [nM]	IC50 [2, 8] [nM]	IC50 [2, 9] [nM]	IC50 [2, 10] [nM]	IC50 [2, 11] [nM]	IC50 [3, 12] [nM]	IC50 [3, 13] [nM]	IC50 [3, 14] [nM]	IC50 [3, 15] [nM]	IC50 [3, 16] [nM]	IC50 [3, 17] [nM]	IC50 [3, 18] [nM]	SMILES
> 2000	> 2000	> 2000	> 2000	> 2000	> 2000	> 2000	> 2000	> 2000	> 2000	> 2000	> 10000	> 2000	> 2000	> 2000	> 2000	CC(=O)c1c([S+]([O-])Cc2ccc(NS(C)(=O)=O)cc2)[nH]c2c(Br)ccc(Cl)c2c1=O (stereo not shown) [Compound 103, N-(4-(((3-acetyl-8-bromo-5-chloro-4-oxo-1,4-dihydroquinolin-2-yl)sulfinyl)methyl)phenyl)methane-sulfonamide]
> 2000	950	1150	> 2000	> 2000	930	1440	1060	> 2000	> 2000	> 2000	> 10000	1590	> 2000	790	> 2000	CC(=O)c1c([S+]([O-])Cc2ccc(Cl)nc2)[nH]c2c(Br)ccc(Cl)c2c1=O (stereo not shown) [Compound 104, 3-acetyl-8-bromo-5-chloro-2-(((6-chloropyridin-3-yl)methyl)sulfinyl)quinolin-4(1H)-one]
> 2000	> 2000	> 2000	> 2000	> 2000	> 2000	> 2000	> 2000	> 2000	> 2000	> 2000	> 10000	> 2000	> 2000	> 2000	> 2000	COCCNc1ccc(C[S+]([O-])c2[nH]c3c(Br)ccc(Cl)c3c(=O)c2C(C)=O)cn1 (stereo not shown) [Compound 105, 3-acetyl-8-bromo-5-chloro-2-(((6-((2-methoxyethyl)amino)pyridin-3-yl)methyl)sulfinyl)quinolin-4(1H)-one]
> 2000	> 2000	> 2000	> 2000	> 2000	> 2000	> 2000	> 2000	> 2000	> 2000	> 2000	> 10000	> 2000	> 2000	> 2000	> 2000	CC(=O)c1c([S+]([O-])Cc2nonc2C)[nH]c2c(Br)ccc(Cl)c2c1=O (stereo not shown) [Compound 106, 3-acetyl-8-bromo-5-chloro-2-(((4-methyl-1,2,5-oxadiazol-3-yl)methyl)sulfinyl)quinolin-4(1H)-one]
> 2000	> 2000	> 2000	> 2000	> 2000	> 2000	> 2000	> 2000	> 2000	> 2000	> 2000	> 10000	> 2000	> 2000	> 2000	> 2000	CC(=O)c1c([S+]([O-])Cc2cnc3[nH]ccc3c2)[nH]c2c(Br)ccc(Cl)c2c1=O (stereo not shown) [Compound 107, 2-(((1H-pyrrolo[2,3-b]pyridin-5-yl)methyl)sulfinyl)-3-acetyl-8-bromo-5-chloroquinolin-4(1H)-one]
